According to PMC10592247 (Molecular cancer therapeutics, 2023):

Assays:
22Rv1 cells = assay: Dextran uptake assay; assay type: cell-based; conditions: 2µM for 30min before assay, TMR-dextran 1 mg/mL 30min
LNCaP-abl cells = assay: Cell viability after pre-incubation with endocytosis pathway inhibitors; assay type: cell-based; conditions: EIPA 50µM 30min, then compound 10µM, PrestoBlue after 3 days, n=2

## CC(C)(C)C(=O)Nc1ccc2c(c1)C(=O)C(=O)c1ccccc1-2 [SF16170, SF1670]
22Rv1 cells
  macropinocytosis (TMR-dextran uptake): enhanced macropinocytosis

## CNC(=O)c1ccc(N2C(=S)N(c3ccc(C#N)c(C(F)(F)F)c3)C(=O)C2(C)C)cc1F [enzalutamide, Enzalutamide]
LNCaP-abl cells
  antiproliferative activity after EIPA pre-incubation: did not affect

## C#C[C@]1(O)CC[C@H]2[C@@H]3CCC4=CC(=O)CC[C@]4(C)[C@H]3CC[C@@]21C [ethisterone, Ethisterone]
LNCaP-abl cells
  antiproliferative activity after EIPA pre-incubation: did not affect
